Test results reported in US20220288060A1, “Treatment of Opioid Withdrawal” (Kinoxis Therapeutics Pty Ltd, priority 2019, published 2022).
“And” between values parts separate entries of the source, which are not always exact repeats. Equal entries are not always repeated. “Also recorded” adds a separate entry of the source.

What was measured:
C57BL/6 mice [1] = assay: Open field locomotor activity test (Experiment 1.1); type: in vivo, mouse
Description: N=18 adult male C57BL/6 mice received either 0, 5 or 10 mg/kg CMPD1-2HCL (i.p.; n=6 per condition). Fifteen minutes after receiving their i.p. injection of CMPD1-2HCL mice were placed individually into a novel 40 (l)×40 (w)×40 (h) cm locomotor testing arena. Sessions were captured by overhead cameras and videos were analysed by using the automated behaviour tracking software CleverSys Topscan (CleverSys, Virginia, USA), which provided the distance travelled by each mouse in each 5 min time bin over the 60 minute locomotor testing session. Data were analysed by SPSS using mixed model ANOVA.

[2] = tested on: naloxone precipitated oxycodone withdrawal in C57BL/6 mice; assay: Naloxone precipitated oxycodone withdrawal: jumping and paw tremors (Experiment 1.2); type: in vivo, mouse; conditions: for Number of jumps for each mouse in the 30 min test session / Total duration of paw tremors for each mouse in the 30 minute test session: oxycodone condition mice, individual mice
Description: Adult male C57BL/6 mice (N=40) were allocated to one of five conditions (n=8 per condition):
(§1) Mice in the oxycodone conditions received i.p. injections of oxycodone for 5 days according to the schedule and doses set out in Table 1. The morning and afternoon doses were separated by 7 h. Mice in the vehicle condition received injections of vehicle saline instead of oxycodone. One-hour-and-forty-five minutes after the morning injection on day 5, mice were administered their i.p. dose of CMPD1-2HCL. Fifteen minutes later they received an i.p. injection of 10 mg/kg naloxone (oxycodone groups) or saline (vehicle group), and proceeded immediately to testing.
Testing involved placing mice individually into a 20 (l)×20 (w)×30 (h) cm arena for 30 min. Sessions were captured via a side view high speed (120 fps), high resolution (4K) camera. Number of jumps and total duration of paw tremors were scored from the videos by an experienced experimenter blind to conditions.
Data were analysed by SPSS using oneway ANOVA and planned contrasts.

[3] = tested on: c-fos protein expression in the brain; assay: Naloxone-precipitated opioid withdrawal-induced c-fos protein expression in the brain (Example 2); type: in vivo, mouse; conditions: 10 mg/kg i.p.; 8 brain regions; 75 minutes after naloxone
Description: In this example, the ability of Compound 1 to inhibit naloxone-precipitated opioid withdrawal-induced c-fos protein expression in the brain was studied. C-fos is a protein marker of neural activation. Compound 1 was administered in dihydrochloride salt form (CMPD1-2HCL).
N=40 male C57BL/6 mice were assigned to one of the following four conditions:
Mice in the oxycodone (OXY) conditions received i.p. injections of oxycodone for 9 days with increasing doses of 9, 17.8, 23.7 and 33 mg/kg (twice daily on days 1-8, with dose increasing every other day). The morning and afternoon doses were separated by 7 h. Mice in the vehicle condition (VEH) received injections of vehicle saline instead of oxycodone. One-hour-and-forty-five minutes after the morning injection on day 9, mice were administered their i.p. dose of CMPD1-2HCL (10 mg/kg at an injection volume of […]) or VEH. Fifteen minutes later they received an i.p. injection of 10 mg/kg naloxone (OXY groups) or saline (VEH groups) to precipitate withdrawal.
75 minutes after their naloxone or saline injection, mice were euthanised by sodium pentobarbitone overdose, and intracardiac puncture perfusion fixation was performed with 4% paraformaldehyde, and brains were then collected for immunohistochemical processing.
Data were analysed by SPSS using two-way ANOVA and planned contrasts.

[4] = tested on: naloxone precipitated oxycodone withdrawal in C57BL/6 mice; assay: Gastrointestinal symptoms of opioid withdrawal: fecal boli and diarrhea (Example 3); type: in vivo, mouse; conditions: 10 mg/kg i.p.
Description: In this example, the ability of CMPD1-2HCL to inhibit the gastrointestinal symptoms of opioid withdrawal was assessed using a murine model.
Adult male C57BL/6 mice ([…]) were allocated to one of four conditions (n=10 per condition):
as §1, with “conditions (OXY)” for “conditions”, “7.” for “1.”, “CMPD1-2HCL (10 mg/kg).” for “CMPD1-2HCL.”
Testing involved placing mice individually into a 20 (l)×20 (w)×30 (h) cm arena for 30 min. The number of fecal boli were counted at the end of the session and whether or not the mouse had diarrhea.
Data were analysed using ANOVA and planned contrasts for fecal boli and Fisher's exact test for diarrhea.

[5] = tested on: naloxone precipitated oxycodone withdrawal in C57BL/6 mice; assay: Naloxone precipitated oxycodone withdrawal-induced jumping, two salt forms (Example 4, Experiment 2.1); type: in vivo, mouse; conditions: 7.3 mg/kg FBE i.p.; for Oxycodone withdrawal-induced jumping vs OXY_VEH: CMPD1-PO4 p<0.01, CMPD1-2HCL p<0.001; for Withdrawal-induced jumping, comparison of the two salt forms: OXY_CMPD1-PO4 vs OXY_2 HCL p=0.901
C57BL/6 mice [6] = assay: Open field locomotor activity test (Experiment 1.1); type: in vivo, mouse; conditions: 5 mg/kg i.p.; time post dose 75-80; individual mice 7-12
[7] = clinical trials; cited from earlier work

SMILES: Cl.Cl.Cn1ncc2c1Nc1ccccc1NC2 [CMPD1-2HCL]
- Distance travelled during time bin (C57BL/6 mice [1]; 5 mg/kg i.p., time post dose 15-20 (5 min bin), individual mice 7-12): 15043.46 mm and 20271.67 mm and 23636.81 mm and 18238.34 mm and 16051.42 mm and 16442.58 mm
- Distance travelled during time bin (C57BL/6 mice [1]; 5 mg/kg i.p., time post dose 20-25, individual mice 7-12): 20386.17 mm and 13996.02 mm and 16449.1 mm and 11919.46 mm and 11756.3 mm and 10974.55 mm
- Distance travelled during time bin (C57BL/6 mice [1]; 5 mg/kg i.p., time post dose 25-30, individual mice 7-12): 11089.15 mm and 11425.88 mm and 11764.23 mm and 8462.92 mm and 10127.95 mm and 8553.13 mm
- Distance travelled during time bin (C57BL/6 mice [1]; 5 mg/kg i.p., time post dose 30-35, individual mice 7-12): 13221.16 mm and 7779.42 mm and 11134.18 mm and 8664.63 mm and 9823.55 mm and 4905.54 mm
- Distance travelled during time bin (C57BL/6 mice [1]; 5 mg/kg i.p., time post dose 35-40, individual mice 7-12): 15282.34 mm and 6791.58 mm and 8208.55 mm and 11776.57 mm and 10597.55 mm and 5280.25 mm
- Distance travelled during time bin (C57BL/6 mice [1]; 5 mg/kg i.p., time post dose 40-45, individual mice 7-12): 7068.09 mm and 9050.59 mm and 7493.64 mm and 9121.74 mm and 5308.25 mm and 6050.2 mm
- Distance travelled during time bin (C57BL/6 mice [1]; 5 mg/kg i.p., time post dose 45-50, individual mice 7-12): 5367.28 mm and 6712.87 mm and 5587.1 mm and 5518.04 mm and 9993.79 mm and 5466.54 mm
- Distance travelled during time bin (C57BL/6 mice [1]; 5 mg/kg i.p., time post dose 50-55, individual mice 7-12): 945.3 mm and 7073.77 mm and 10568.53 mm and 9463.89 mm and 5234.55 mm and 6665.74 mm
- Distance travelled during time bin (C57BL/6 mice [1]; 5 mg/kg i.p., time post dose 55-60, individual mice 7-12): 3362.81 mm and 8088.81 mm and 11051.63 mm and 11843.34 mm and 6386.55 mm and 4645.85 mm
- Distance travelled during time bin (C57BL/6 mice [1]; 5 mg/kg i.p., time post dose 60-65, individual mice 7-12): 6133.83 mm and 10365.45 mm and 10059.86 mm and 11154.54 mm and 8969.03 mm and 4893.44 mm
- Distance travelled during time bin (C57BL/6 mice [1]; 5 mg/kg i.p., time post dose 65-70, individual mice 7-12): 5268.88 mm and 4809.55 mm and 6121.25 mm and 4100.88 mm and 9397.98 mm and 4757.22 mm
- Effect on locomotor activity (distance travelled) (C57BL/6 mice [1]; 5 and 10 mg/kg i.p., main effect of dose p=0.392, time by dose interaction p=0.143): does not significantly impact locomotor activity; also recorded: does not supress locomotor activity
- Distance travelled during time bin (C57BL/6 mice [1]; Table 3, 5 mg/kg, i.p., time post dose 35-40, individual mice 13-18): 11756.13 mm and 8046.38 mm (2×) and 12860.87 mm and 13271.28 mm and 10054.85 mm
- Distance travelled during time bin (C57BL/6 mice [1]; Table 3, 5 mg/kg, i.p., time post dose 40-45, individual mice 13-18): 7682.41 mm and 2222.65 mm (2×) and 11152.11 mm and 12391.75 mm and 4683.51 mm
- Distance travelled during time bin (C57BL/6 mice [1]; Table 3, 5 mg/kg, i.p., time post dose 45-50, individual mice 13-18): 11290.93 mm and 6482.48 mm (2×) and 10743.61 mm and 12658.5 mm and 8082.58 mm
- Distance travelled during time bin (C57BL/6 mice [1]; Table 3, 5 mg/kg, i.p., time post dose 55-60, individual mice 13-18): 28970.94 mm and 12316.3 mm (2×) and 32680.43 mm and 27725.23 mm and 19894.04 mm
- Distance travelled during time bin (C57BL/6 mice [1]; Table 3, 5 mg/kg, i.p., time post dose 60-65, individual mice 13-18): 17509.3 mm and 10864.14 mm (2×) and 28788.31 mm
- Jumping relative to mice not undergoing oxycodone withdrawal (VEH 0CMPD1) ([2]; 2.5, 5, 10 mg/kg i.p., p<0.001, p<0.001, p=0.011): still showed elevated jumping
- Oxycodone withdrawal-induced jumping vs OXCD 0CMPD1 ([2]; 2.5, 5, 10 mg/kg i.p., p=0.023, p=0.018, p<0.001): significantly inhibited
- Dysphoric and somatic symptoms (jumping and paw tremors) of oxycodone withdrawal ([2]; 2.5-10 mg/kg i.p., conclusion): dose dependently inhibited
- Paw tremors relative to mice not undergoing oxycodone withdrawal (VEH 0CMPD1) ([2]; 5 and 10 mg/kg i.p., p=0.204, p=0.4 (2.5 mg/kg p<0.01)): no longer had significantly elevated paw tremors
- Oxycodone withdrawal-induced paw tremors vs OXCD 0CMPD1 ([2]; highest dose 10 mg/kg i.p., p=0.033 (2.5 mg/kg p=0.898; 5 mg/kg p=0.083)): significantly inhibited
- Number of jumps for each mouse in the 30 min test session ([2]; 2.5 mg/kg i.p., 2.5 mg/kg): 86 and 52 and 58 and 50 (2×) and 31 and 92 and 68
- Total duration of paw tremors for each mouse in the 30 minute test session ([2]; 2.5 mg/kg i.p., 2.5 mg/kg): 12.4 s and 2.3 s and 78.4 s and 48 s and 27.1 s and 20.4 s and 0.2 s and 0.4 s
- Number of jumps for each mouse in the 30 min test session ([2]; 5 mg/kg i.p., 5 mg/kg): 51 and 35 and 61 and 48 (2×) and 30 and 136 and 67
- Total duration of paw tremors for each mouse in the 30 minute test session ([2]; 5 mg/kg i.p., 5 mg/kg): 8.2 seconds and 21.4 seconds and 3 seconds (2×) and 18.5 seconds and 2.1 seconds and 3.2 seconds and 17 seconds
- Number of jumps for each mouse in the 30 min test session ([2]; 10 mg/kg i.p., 10 mg/kg): 25 and 120 and 17 and 33 (2×) and 26 and 51 and 34
- Total duration of paw tremors for each mouse in the 30 minute test session ([2]; 10 mg/kg i.p., 10 mg/kg): 9.9 seconds and 0 seconds (3×) and 6 seconds and 21.5 seconds and 3.3 seconds and 9.6 seconds
- Withdrawal induced neural activation (c-fos positive cells) [3]: significantly inhibited withdrawal induced neural activation
- Number of mice suffering from diarrhea ([4]; Fisher's exact test): inhibited
- Amount of fecal boli produced during the 30 min session ([4]; p<0.001 vs opioid withdrawal): significantly inhibited
- Proportion of mice suffering from diarrhea ([4]; OXY condition, n=10, OXY, VEH 90%, VEH, VEH 0%): 30%
- Oxycodone withdrawal-induced jumping vs OXY_VEH [5]: significantly inhibited
- Withdrawal-induced jumping, comparison of the two salt forms [5]: did not differ significantly
- Distance travelled during time bin (C57BL/6 mice [6]): 3441.42 mm and 8422.46 mm and 11136.92 mm and 9156.71 mm and 2402.89 mm and 1364.63 mm

SMILES: Cn1ncc2c1Nc1ccccc1NC2.O=P(O)(O)O [CMPD1-PO4]
- Oxycodone withdrawal-induced jumping vs OXY_VEH [5]: significantly inhibited
- Withdrawal-induced jumping, comparison of the two salt forms [5]: did not differ significantly

SMILES: CC(Oc1c(Cl)cccc1Cl)C1=NCCN1 (stereo not drawn) [lofexidine]
- Improvements in acute opioid withdrawal symptoms and treatment retention [7]: only modest improvements
- Side effects [7]: hypotension, bradycardia and insomnia
